Drawing on paper PMC10303200 (ACS Central Science, 2023), this text covers Kd for four compounds.

The target in the assay is MAA (Maackia amurensis agglutinin). The assay can be described thus: COIN-CaR-nMS. In kind it is binding. Particulars: native and all α2-3-linked N-glycan natural libraries and purified 3SL, 3SLN; pH 6.9.
As a reminder, the Kd is the equilibrium constant for the complex coming apart. Higher therefore signals weaker binding. As for `CC(=O)N[C@H]1[C@H](O[C@H]2[C@H](O)[C@@H](NC(C)=O)C(O)O[C@@H]2CO[C@@H]2O[C@@H](C)[C@@H](O)[C@@H](O)[C@@H]2O)O[C@H](CO)[C@@H](O[C@@H]2O[C@H](CO[C@H]3O[C@H](CO)[C@@H](O)[C@H](O)[C@@H]3O[C@@H]3O[C@H](CO)[C@@H](O[C@@H]4O[C@H](CO)[C@H](O)[C@H](O)[C@H]4O)[C@H](O)[C@H]3NC(C)=O)[C@@H](O)[C@H](O[C@H]3O[C@H](CO)[C@@H](O)[C@H](O)[C@@H]3O[C@@H]3O[C@H](CO)[C@@H](O[C@@H]4O[C@H](CO[C@]5(C(=O)O)C[C@H](O)[C@@H](NC(C)=O)[C@H]([C@H](O)[C@H](O)CO)O5)[C@H](O)[C@H](O)[C@H]4O)[C@H](O)[C@H]3NC(C)=O)[C@@H]2O)[C@@H]1O` (stereo partly shown) [HexNAc4Hex5Fuc1NeuAc1], the Kd was 570 ± 160 nM.
As for `CC(=O)N[C@H]1[C@H](O[C@H]2[C@H](O)[C@@H](NC(C)=O)C(O)O[C@@H]2CO)O[C@H](CO)[C@@H](O[C@@H]2O[C@H](CO[C@H]3O[C@H](CO)[C@@H](O)[C@H](O)[C@@H]3O[C@@H]3O[C@H](CO)[C@@H](O[C@@H]4O[C@H](CO[C@]5(C(=O)O)C[C@H](O)[C@@H](NC(=O)CO)[C@H]([C@H](O)[C@H](O)CO)O5)[C@H](O)[C@H](O)[C@H]4O)[C@H](O)[C@H]3NC(C)=O)[C@@H](O)[C@H](O[C@H]3O[C@H](CO)[C@@H](O)[C@H](O)[C@@H]3O[C@@H]3O[C@H](CO)[C@@H](O[C@@H]4O[C@H](CO[C@]5(C(=O)O)C[C@H](O)[C@@H](NC(=O)CO)[C@H]([C@H](O)[C@H](O)CO)O5)[C@H](O)[C@H](O)[C@H]4O)[C@H](O)[C@H]3NC(C)=O)[C@@H]2O)[C@@H]1O` (stereo partly shown) [HexNAc4Hex5NeuGc2], the figure is 490 ± 200 nM.
As for `CC(=O)N[C@H]1[C@H](O[C@H]2[C@H](O)[C@@H](NC(C)=O)C(O)O[C@@H]2CO[C@@H]2O[C@@H](C)[C@@H](O)[C@@H](O)[C@@H]2O)O[C@H](CO)[C@@H](O[C@@H]2O[C@H](CO[C@H]3O[C@H](CO)[C@@H](O)[C@H](O)[C@@H]3O[C@@H]3O[C@H](CO)[C@@H](O[C@@H]4O[C@H](CO[C@]5(C(=O)O)C[C@H](O)[C@@H](NC(C)=O)[C@H]([C@H](O)[C@H](O)CO)O5)[C@H](O)[C@H](O)[C@H]4O)[C@H](O)[C@H]3NC(C)=O)[C@@H](O)[C@H](O[C@H]3O[C@H](CO)[C@@H](O)[C@H](O)[C@@H]3O[C@@H]3O[C@H](CO)[C@@H](O[C@@H]4O[C@H](CO[C@]5(C(=O)O)C[C@H](O)[C@@H](NC(C)=O)[C@H]([C@H](O)[C@H](O)CO)O5)[C@H](O)[C@H](O)[C@H]4O)[C@H](O)[C@H]3NC(C)=O)[C@@H]2O)[C@@H]1O` (stereo partly shown) [HexNAc4Hex5Fuc1NeuAc2], the figure is 390 ± 80 nM.
In turn, `CC(=O)N[C@H]1[C@H](O[C@H]2[C@H](O)[C@@H](NC(C)=O)C(O)O[C@@H]2CO)O[C@H](CO)[C@@H](O[C@@H]2O[C@H](CO[C@H]3O[C@H](CO)[C@@H](O)[C@H](O)[C@@H]3O[C@@H]3O[C@H](CO)[C@@H](O[C@@H]4O[C@H](CO[C@]5(C(=O)O)C[C@H](O)[C@@H](NC(C)=O)[C@H]([C@H](O)[C@H](O)CO)O5)[C@H](O)[C@H](O)[C@H]4O)[C@H](O)[C@H]3NC(C)=O)[C@@H](O)[C@H](O[C@H]3O[C@H](CO)[C@@H](O)[C@H](O)[C@@H]3O[C@@H]3O[C@H](CO)[C@@H](O[C@@H]4O[C@H](CO[C@]5(C(=O)O)C[C@H](O)[C@@H](NC(C)=O)[C@H]([C@H](O)[C@H](O)CO)O5)[C@H](O)[C@H](O)[C@H]4O)[C@H](O)[C@H]3NC(C)=O)[C@@H]2O)[C@@H]1O` (stereo partly shown) [HexNAc4Hex5NeuAc2] returned a Kd of 520 ± 200 nM.
